ChEMBL document CHEMBL1201862, “PubChem BioAssay data set” (2004)
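1) Cells in 96-well plates. 2) Compound, 48 h, 5 concentrations. 3) Linear interpolation between surrounding doses. 4) Unreached endpoint = highest concentration. GI50 is the concentration that inhibits growth by half.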 Active and inactive are the calls of the source. No stated cut-off is given here; in the data, active = GI50 up to about 1.1 µM and inactive = higher.

Key:
Experiment in all cases: inhibition of tumour cell growth, NCI panel, 48 h
786-0 = system: 786-0
A498 = system: A498
A549 = system: A549
ACHN = system: ACHN
BT-549 = system: BT-549
CAKI-1 = system: CAKI-1
CCRF-CEM = system: CCRF-CEM
COLO 205 = system: COLO 205
DU-145 = system: DU-145
EKVX = system: EKVX
HCC 2998 = system: HCC 2998
HCT-116 = system: HCT-116
HCT-15 = system: HCT-15
HL-60 = system: HL-60
HOP-62 = system: HOP-62
HOP-92 = system: HOP-92
HT-29 = system: HT-29
Hs-578T = system: Hs-578T
IGROV-1 = system: IGROV-1
K562 = system: K562
KM12 = system: KM12
LOX IMVI = system: LOX IMVI
M14 = system: M14
MCF7 = system: MCF7
MDA-MB-231 = system: MDA-MB-231
MDA-MB-435 = system: MDA-MB-435
MDA-N = system: MDA-N
MOLT-4 = system: MOLT-4
Malme-3M = system: Malme-3M
NCI-H226 = system: NCI-H226
NCI-H23 = system: NCI-H23
NCI-H460 = system: NCI-H460
NCI-H522 = system: NCI-H522
NCI/ADR-RES = system: NCI/ADR-RES
OVCAR-3 = system: OVCAR-3
OVCAR-4 = system: OVCAR-4
OVCAR-5 = system: OVCAR-5
OVCAR-8 = system: OVCAR-8
PC-3 = system: PC-3
RPMI-8226 = system: RPMI-8226
RXF 393 = system: RXF 393
SF-268 = system: SF-268
SF-295 = system: SF-295
SF-539 = system: SF-539
SK-MEL-28 = system: SK-MEL-28
SK-MEL-2 = system: SK-MEL-2
SK-MEL-5 = system: SK-MEL-5
SK-OV-3 = system: SK-OV-3
SN12C = system: SN12C
SNB-19 = system: SNB-19
SNB-75 = system: SNB-75
SR = system: SR
SW-620 = system: SW-620
T47D = system: T47D
TK-10 = system: TK-10
U-251 = system: U-251
UACC-257 = system: UACC-257
UACC-62 = system: UACC-62
UO-31 = system: UO-31
DLD-1 = system: DLD-1
DMS-114 = system: DMS-114
KM-20L2 = system: KM-20L2
LXFL 529 = system: LXFL 529
M19-MEL = system: M19-MEL
SNB-78 = system: SNB-78
XF498 = system: XF498

SMILES: COc1cccc(C2c3cc4c(cc3OC(N3CCOCC3)C2C)OCO4)c1O (stereo not given)
- GI50 (786-0): 5.6 µM (inactive)
- GI50 (A498): 6.27 µM (inactive)
- GI50 (A549): 4.82 µM (inactive)
- GI50 (ACHN): 10.1 µM (inactive)
- GI50 (BT-549): 13.9 µM (inactive)
- GI50 (CAKI-1): 2.66 µM (inactive)
- GI50 (CCRF-CEM): 3.28 µM (inactive)
- GI50 (COLO 205): 4.28 µM (inactive)
- GI50 (DU-145): 4.43 µM (inactive)
- GI50 (EKVX): 9.14 µM (inactive)
- GI50 (HCC 2998): 7.23 µM (inactive)
- GI50 (HCT-116): 3.84 µM (inactive)
- GI50 (HCT-15): 3.32 µM
- GI50 (HL-60): 2.26 µM (inactive)
- GI50 (HOP-62): 4.27 µM (inactive)
- GI50 (HOP-92): 12.1 µM (inactive)
- GI50 (HT-29): 4.02 µM (inactive)
- GI50 (Hs-578T): 1.77 µM (inactive)
- GI50 (IGROV-1): 6.19 µM (inactive)
- GI50 (K562): 3.06 µM (inactive)
- GI50 (KM12): 3.48 µM (inactive)
- GI50 (LOX IMVI): 5.31 µM (inactive)
- GI50 (M14): 4.6 µM (inactive)
- GI50 (MCF7): 5.14 µM (inactive)
- GI50 (MDA-MB-231): 11.6 µM (inactive)
- GI50 (MDA-MB-435): 1.24 µM (inactive)
- GI50 (MDA-N): 1.03 µM (active)
- GI50 (MOLT-4): 4.02 µM (inactive)
- GI50 (Malme-3M): 4.99 µM (inactive)
- GI50 (NCI-H226): 4.46 µM (inactive)
- GI50 (NCI-H23): 6.73 µM (inactive)
- GI50 (NCI-H460): 3.55 µM (inactive)
- GI50 (NCI-H522): 2.9 µM (inactive)
- GI50 (NCI/ADR-RES): 7.21 µM (inactive)
- GI50 (OVCAR-3): 3.64 µM (inactive)
- GI50 (OVCAR-4): 9.86 µM (inactive)
- GI50 (OVCAR-5): 7.46 µM (inactive)
- GI50 (OVCAR-8): 6.59 µM (inactive)
- GI50 (PC-3): 4.7 µM (inactive)
- GI50 (RPMI-8226): 2.83 µM (inactive)
- GI50 (RXF 393): 2.13 µM (inactive)
- GI50 (SF-268): 6.89 µM (inactive)
- GI50 (SF-295): 3.64 µM (inactive)
- GI50 (SF-539): 2.69 µM (inactive)
- GI50 (SK-MEL-28): 10.9 µM (inactive)
- GI50 (SK-MEL-2): 7.1 µM (inactive)
- GI50 (SK-MEL-5): 3.6 µM (inactive)
- GI50 (SK-OV-3): 5.56 µM (inactive)
- GI50 (SN12C): 6.59 µM (inactive)
- GI50 (SNB-19): 3.44 µM (inactive)
- GI50 (SNB-75): 7.29 µM (inactive)
- GI50 (SR): 1.23 µM (inactive)
- GI50 (SW-620): 3.87 µM (inactive)
- GI50 (T47D): 4.48 µM (inactive)
- GI50 (TK-10): 8.24 µM (inactive)
- GI50 (U-251): 0.38 µM (active)
- GI50 (UACC-257): 9.14 µM (inactive)
- GI50 (UACC-62): 4.53 µM (inactive)
- GI50 (UO-31): 8.3 µM (inactive)

SMILES: O=C(O)C(Br)Cc1ccc2c(c1)OCO2 (stereo not given)
- GI50 (A498): 47.2 µM (inactive)
- GI50 (A549): > 100 µM (inactive)
- GI50 (ACHN): > 100 µM (inactive)
- GI50 (CAKI-1): > 100 µM (inactive)
- GI50 (CCRF-CEM): > 100 µM (inactive)
- GI50 (COLO 205): 55.7 µM (inactive)
- GI50 (DLD-1): > 100 µM (inactive)
- GI50 (DMS-114): > 100 µM (inactive)
- GI50 (EKVX): > 100 µM (inactive)
- GI50 (HCC 2998): > 100 µM (inactive)
- GI50 (HCT-116): > 100 µM (inactive)
- GI50 (HCT-15): > 100 µM
- GI50 (HL-60): > 100 µM (inactive)
- GI50 (HOP-62): > 100 µM (inactive)
- GI50 (HOP-92): > 100 µM (inactive)
- GI50 (HT-29): > 100 µM (inactive)
- GI50 (IGROV-1): > 100 µM (inactive)
- GI50 (K562): > 100 µM (inactive)
- GI50 (KM-20L2): > 100 µM (inactive)
- GI50 (KM12): > 100 µM (inactive)
- GI50 (LXFL 529): > 100 µM (inactive)
- GI50 (M14): > 100 µM (inactive)
- GI50 (M19-MEL): 69.2 µM (inactive)
- GI50 (MOLT-4): > 100 µM (inactive)
- GI50 (Malme-3M): 40.7 µM (inactive)
- GI50 (NCI-H23): > 100 µM (inactive)
- GI50 (NCI-H460): > 100 µM (inactive)
- GI50 (NCI-H522): > 100 µM (inactive)
- GI50 (OVCAR-3): > 100 µM (inactive)
- GI50 (OVCAR-4): 88.7 µM (inactive)
- GI50 (OVCAR-5): > 100 µM (inactive)
- GI50 (RPMI-8226): > 100 µM (inactive)
- GI50 (RXF 393): 71.9 µM (inactive)
- GI50 (SF-268): > 100 µM (inactive)
- GI50 (SF-295): 55.5 µM (inactive)
- GI50 (SF-539): > 100 µM (inactive)
- GI50 (SK-MEL-28): > 100 µM (inactive)
- GI50 (SK-MEL-2): > 100 µM (inactive)
- GI50 (SK-MEL-5): > 100 µM (inactive)
- GI50 (SK-OV-3): > 100 µM (inactive)
- GI50 (SN12C): > 100 µM (inactive)
- GI50 (SNB-19): > 100 µM (inactive)
- GI50 (SNB-75): 20.9 µM (inactive)
- GI50 (SNB-78): > 100 µM (inactive)
- GI50 (SR): > 100 µM (inactive)
- GI50 (SW-620): > 100 µM (inactive)
- GI50 (U-251): > 100 µM (inactive)
- GI50 (UACC-257): > 100 µM (inactive)
- GI50 (UACC-62): 62.1 µM (inactive)
- GI50 (UO-31): > 100 µM (inactive)
- GI50 (XF498): 24 µM (inactive)
